In patent US9445589B2, “Active compounds combinations comprising a lipo-chitooligosaccharide derivative and a nematicide, insecticidal or fungicidal compound” (Bayer CropScience AG, priority 2012, dated 2016):

Test system: Maize seedlings
Assay: Maize seedlings shoot weight (seed treatment, greenhouse)
Assay type: in vivo
Description: Maize seeds are grown in loamy sand in the greenhouse at 20 C and 70% humidity for 11 days. After 11 days seedlings were cut off above the soil and fresh weight was determined. Compounds are applied at the following concentration: Poncho™ (pesticidal product comprising clothianidin as active ingredient): 250 μg of clothianidin/kernel; VOTiVO™ (product based on the natural soil bacteria Bacillus firmus (strain I-1582): 50 μg/kernel; Compound A of formula (I): 0.01 μg/kernel. The test is evaluated 11 days after the application. 100% means shoot weight which corresponds to that of the untreated control. Efficacy means in this case the additional % of shoot weight in comparison to that of the untreated control.

CCCCCC/C=C\CCCOc1cccc(C(=O)N[C@@H]2C(O[C@H]3C(O)C(NC(C)=O)C(OC4C(CO)O[C@@H](O[C@H]5C(O)C(NC(C)=O)C(OC6C(CO)OC(O)[C@@H](NC(C)=O)[C@@H]6O)O[C@H]5CO)[C@@H](NC(C)=O)[C@@H]4O)O[C@H]3CO)OC(CO)[C@@H](O)[C@@H]2O)c1 (stereo partly drawn) [Compound A of formula (I)]
Efficacy % (additional % of shoot weight in comparison to untreated control, 11 days after application): 7% | Seedling shoot weight (g) (Average on 3 replicates) (fresh weight after 11 days in loamy sand, greenhouse 20 C, 70% humidity, clothianidin 250 μg/kernel, VOTiVO 50 μg/kernel, Compound A 0.01 μg/kernel): 15.3 g | Found % (shoot weight relative to untreated control (100%), 11 days after application, same application rates): 107%
